Measurements from ChEMBL document CHEMBL1201862, “PubChem BioAssay data set” (2004).
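Test compounds were applied to cells in 96-well plates for 48 hours at 5 doses. At the GI50, growth is halved.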 Activity calls are given as the source filed them. Cut-off read from the data, not from the text of the source: active = GI50 up to about 1.1 µM and inactive = higher.

What was measured:
Experiment in all cases: inhibition of tumour cell growth, NCI panel, 48 h
BT-549 = test system: BT-549
EKVX = test system: EKVX
IGROV-1 = test system: IGROV-1
A549 = test system: A549
U-251 = test system: U-251
COLO 205 = test system: COLO 205
HL-60 = test system: HL-60
LOX IMVI = test system: LOX IMVI
TK-10 = test system: TK-10
SF-268 = test system: SF-268
Hs-578T = test system: Hs-578T
NCI-H522 = test system: NCI-H522
HCT-116 = test system: HCT-116
786-0 = test system: 786-0
MDA-MB-435 = test system: MDA-MB-435
SNB-75 = test system: SNB-75
SNB-19 = test system: SNB-19
OVCAR-4 = test system: OVCAR-4
SK-MEL-5 = test system: SK-MEL-5
SR = test system: SR
HCC 2998 = test system: HCC 2998
M14 = test system: M14
UACC-257 = test system: UACC-257
NCI-H460 = test system: NCI-H460
MDA-MB-231 = test system: MDA-MB-231
HOP-92 = test system: HOP-92
NCI/ADR-RES = test system: NCI/ADR-RES
HT-29 = test system: HT-29
NCI-H23 = test system: NCI-H23
PC-3 = test system: PC-3
T47D = test system: T47D
SF-295 = test system: SF-295
OVCAR-5 = test system: OVCAR-5
SK-MEL-2 = test system: SK-MEL-2
SK-MEL-28 = test system: SK-MEL-28
SW-620 = test system: SW-620
UACC-62 = test system: UACC-62
ACHN = test system: ACHN
DU-145 = test system: DU-145
CAKI-1 = test system: CAKI-1
SF-539 = test system: SF-539
KM12 = test system: KM12
CCRF-CEM = test system: CCRF-CEM
Malme-3M = test system: Malme-3M
OVCAR-3 = test system: OVCAR-3
RXF 393 = test system: RXF 393
UO-31 = test system: UO-31
OVCAR-8 = test system: OVCAR-8
RPMI-8226 = test system: RPMI-8226
SN12C = test system: SN12C
HCT-15 = test system: HCT-15
A498 = test system: A498
MCF7 = test system: MCF7
K562 = test system: K562
NCI-H226 = test system: NCI-H226
HOP-62 = test system: HOP-62
MDA-N = test system: MDA-N
MOLT-4 = test system: MOLT-4

Measured: GI50

COc1ccc(OC)c2nc3c(C(=O)NCCN(C)C)cccc3nc12
inactive: BT-549 10.8 µM | EKVX 6.58 µM | IGROV-1 4.59 µM | A549 3.37 µM | U-251 4.21 µM | COLO 205 2.37 µM | HL-60 3.18 µM | LOX IMVI 1.78 µM | TK-10 4.63 µM | SF-268 3.94 µM | Hs-578T 5.89 µM | NCI-H522 2.61 µM | HCT-116 1.79 µM | 786-0 3.05 µM | MDA-MB-435 5.11 µM | SNB-75 11.7 µM | SNB-19 6.76 µM | OVCAR-4 3.09 µM | SK-MEL-5 3.67 µM | SR 2.17 µM | HCC 2998 5.77 µM | M14 4.69 µM | UACC-257 3.88 µM | NCI-H460 3.24 µM | MDA-MB-231 2.94 µM | HOP-92 4.18 µM | NCI/ADR-RES 5.25 µM | HT-29 1.8 µM | NCI-H23 3.7 µM | PC-3 4.04 µM | T47D 14.1 µM | SF-295 3.99 µM | OVCAR-5 10.3 µM | SK-MEL-2 8.45 µM | SK-MEL-28 7.83 µM | SW-620 1.77 µM | UACC-62 7.71 µM | ACHN 1.98 µM | DU-145 5.21 µM | CAKI-1 3.22 µM | SF-539 4.5 µM | KM12 4.2 µM | CCRF-CEM 2.29 µM | Malme-3M 8.65 µM | OVCAR-3 4.93 µM | RXF 393 5.85 µM | UO-31 2.72 µM | OVCAR-8 2.54 µM | RPMI-8226 2.84 µM | SN12C 4.11 µM | A498 13.9 µM | MCF7 3.48 µM | K562 3 µM | NCI-H226 4.66 µM | HOP-62 4.55 µM | MDA-N 4.52 µM | MOLT-4 2.8 µM
4.74 µM: HCT-15

O=c1[nH]cnc2c1ncn2[C@@H]1C[C@H]1CO
inactive: BT-549 > 100 µM | EKVX > 100 µM | IGROV-1 > 100 µM | A549 > 100 µM | U-251 > 100 µM | COLO 205 > 100 µM | HL-60 > 100 µM | LOX IMVI > 100 µM | TK-10 > 100 µM | SF-268 > 100 µM | Hs-578T > 100 µM | NCI-H522 > 100 µM | HCT-116 > 100 µM | 786-0 > 100 µM | MDA-MB-435 > 100 µM | SNB-75 > 100 µM | SNB-19 > 100 µM | OVCAR-4 > 100 µM | SK-MEL-5 > 100 µM | SR > 100 µM | HCC 2998 > 100 µM | M14 > 100 µM | UACC-257 > 100 µM | NCI-H460 > 100 µM | MDA-MB-231 > 100 µM | HOP-92 > 100 µM | NCI/ADR-RES > 100 µM | HT-29 > 100 µM | NCI-H23 > 100 µM | PC-3 > 100 µM | T47D > 100 µM | OVCAR-5 > 100 µM | SK-MEL-2 > 100 µM | SK-MEL-28 > 100 µM | SW-620 > 100 µM | UACC-62 > 100 µM | ACHN > 100 µM | DU-145 > 100 µM | CAKI-1 > 100 µM | SF-539 > 100 µM | KM12 > 100 µM | CCRF-CEM > 100 µM | Malme-3M > 100 µM | RXF 393 > 100 µM | UO-31 > 100 µM | OVCAR-8 > 100 µM | RPMI-8226 > 100 µM | SN12C > 100 µM | A498 > 100 µM | MCF7 > 100 µM | K562 > 100 µM | NCI-H226 > 100 µM | HOP-62 > 100 µM | MDA-N > 100 µM | MOLT-4 > 100 µM
> 100 µM: HCT-15
